“Also recorded” adds a separate entry of the source.
What was measured:
[1] = target: T1, soybean 15-LOX (Glycine max, UniProt P08170); experiment: In vitro 15-lipoxygenase inhibition assay; type: biochemical; conditions: read-out: IC50 (µM) ± SEM 15-LOX
T1 sequence (P08170 1-839): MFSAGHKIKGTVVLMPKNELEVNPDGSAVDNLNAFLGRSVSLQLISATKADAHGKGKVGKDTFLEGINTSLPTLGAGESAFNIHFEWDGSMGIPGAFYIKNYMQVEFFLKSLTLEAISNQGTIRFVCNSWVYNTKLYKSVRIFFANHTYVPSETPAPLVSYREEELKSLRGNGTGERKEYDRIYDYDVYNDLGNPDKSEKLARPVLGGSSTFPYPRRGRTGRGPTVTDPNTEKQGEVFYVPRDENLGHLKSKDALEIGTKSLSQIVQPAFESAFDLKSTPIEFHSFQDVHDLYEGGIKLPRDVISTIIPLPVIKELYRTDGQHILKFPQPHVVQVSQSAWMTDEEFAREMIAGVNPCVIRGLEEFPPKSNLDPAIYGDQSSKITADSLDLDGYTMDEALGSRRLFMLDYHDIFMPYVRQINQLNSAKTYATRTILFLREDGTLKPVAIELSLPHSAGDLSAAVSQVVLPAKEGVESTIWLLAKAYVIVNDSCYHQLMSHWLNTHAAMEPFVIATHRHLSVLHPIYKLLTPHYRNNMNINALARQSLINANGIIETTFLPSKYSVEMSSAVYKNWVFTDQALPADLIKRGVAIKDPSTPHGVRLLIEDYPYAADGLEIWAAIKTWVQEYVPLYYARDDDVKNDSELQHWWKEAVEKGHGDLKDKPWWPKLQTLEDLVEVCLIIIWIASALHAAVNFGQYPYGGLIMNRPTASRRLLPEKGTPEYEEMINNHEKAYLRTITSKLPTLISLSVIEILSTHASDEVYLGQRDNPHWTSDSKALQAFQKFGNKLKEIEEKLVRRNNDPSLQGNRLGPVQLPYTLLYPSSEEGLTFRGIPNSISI
From the text: (§1) Assay protocols for bioactivity were placed in electronic supplementary material.

[2] = target: α-glucosidase (Saccharomyces cerevisiae, UniProt P53341); experiment: In vitro α-glucosidase inhibition assay; type: biochemical; conditions: NA = not active; for IC50: read-out: IC50 (µM) ± SEM α-glucosidase
From the text: as §1
Synthesized diclofenac acid derivatives were screened for α-glucosidase inhibitory activity (table 2).

[3] = test system: mononuclear cells (MNCs); experiment: Cellular viability assay on mononuclear cells; type: cell-based, human
From the text: (§2) All of the chemicals and solvents were obtained from Sigma-Aldrich and used directly without any purification. Mononuclear cells were isolated from the blood samples taken from healthy volunteers. Diclofenac acid was purchased from Alfa Aesar. Bruker Avance 400 and 500 MHz spectrometers were used to […] the ^1H and ^13C nuclear magnetic resonance (NMR) spectra, were captured with tetramethylsilane (TMS) serving as an internal reference. On a Finnegan MAT-311A mass spectrometer, high-resolution mass spectrometry using electron ionization (HRMS (EI)) data were recorded. Using the Stuart melting point apparatus, melting points in open capillaries were determined (SMP10). All reactions were monitored by using thin layer chromatography (TLC) plates that were pre-coated with silica gel 60F254.
as §1
(§3) Using mononuclear cells (MNCs) at a concentration of 0.25 mM as shown in the table 2, the per cent viability was calculated.

[4] = Cellular viability assay on mononuclear cells; type: cell-based, human; conditions: human, mononuclear cells (MNCs) isolated from blood, read-out: cell viability (%) at 0.25 mM
From the text: as §2, §1, §3

Sequence of α-glucosidase (P53341 whole entry): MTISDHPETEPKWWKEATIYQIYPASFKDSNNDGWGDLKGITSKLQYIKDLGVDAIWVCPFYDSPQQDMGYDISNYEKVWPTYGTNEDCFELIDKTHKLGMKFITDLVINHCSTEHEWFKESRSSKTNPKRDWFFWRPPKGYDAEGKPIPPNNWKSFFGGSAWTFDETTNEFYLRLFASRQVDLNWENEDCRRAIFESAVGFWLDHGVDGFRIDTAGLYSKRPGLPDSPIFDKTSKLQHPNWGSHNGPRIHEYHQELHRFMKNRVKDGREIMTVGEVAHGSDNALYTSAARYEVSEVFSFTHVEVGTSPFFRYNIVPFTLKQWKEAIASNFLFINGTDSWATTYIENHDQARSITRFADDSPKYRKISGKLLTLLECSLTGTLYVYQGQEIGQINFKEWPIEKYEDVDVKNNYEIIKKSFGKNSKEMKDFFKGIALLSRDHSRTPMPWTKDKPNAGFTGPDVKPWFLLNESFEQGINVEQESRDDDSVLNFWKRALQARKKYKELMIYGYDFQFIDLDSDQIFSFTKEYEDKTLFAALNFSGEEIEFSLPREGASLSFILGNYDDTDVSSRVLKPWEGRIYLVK

Row | SMILES | IC50 [1] [µM] | IC50 [2] [µM] | cell viability (%) at 0.25 mM [3] [%] | IC50 (µM) ± SEM α-glucosidase [2] | viability at 0.25 mM [4] [%]
1 | O=C(Cc1ccccc1Nc1c(Cl)cccc1Cl)NNC(=S)Nc1ccccc1F [4a] | 163 ± 1 | 53 ± 1 | 79 ± 2 |  | 
2 | O=C(Cc1ccccc1Nc1c(Cl)cccc1Cl)NNC(=S)Nc1cccc(F)c1 [4b] | > 250 | 5 ± 1 | 82 ± 1 |  | 
3 | O=C(Cc1ccccc1Nc1c(Cl)cccc1Cl)NNC(=S)Nc1ccc(F)cc1 [4c] | > 250 | 53 ± 1 | 62 ± 2 |  | 
4 | O=C(Cc1ccccc1Nc1c(Cl)cccc1Cl)NNC(=S)Nc1cccc(Cl)c1Cl [4d] | 164 ± 1 | 28 ± 1 | 73 ± 1 |  | 
5 | O=C(Cc1ccccc1Nc1c(Cl)cccc1Cl)NNC(=S)Nc1ccc(Cl)cc1Cl [4e] | 177 ± 1 | 87 ± 1 | 64 ± 2 |  | 
6 | O=C(Cc1ccccc1Nc1c(Cl)cccc1Cl)NNC(=S)Nc1ccc(Cl)c(Cl)c1 [4f] | > 250 | 93 ± 1 | 64 ± 2 |  | 
7 | Fc1ccccc1-n1c(S)nnc1Cc1ccccc1Nc1c(Cl)cccc1Cl [5a] | 14 ± 1 | 202 ± 1 | 97 ± 2 |  | 
8 | Fc1cccc(-n2c(S)nnc2Cc2ccccc2Nc2c(Cl)cccc2Cl)c1 [5b] | 61 ± 1 | 308 ± 1 | 96 ± 2 |  | 
9 | Fc1ccc(-n2c(S)nnc2Cc2ccccc2Nc2c(Cl)cccc2Cl)cc1 [5c] | > 250 | 170 ± 1 | 96 ± 2 |  | 
10 | Sc1nnc(Cc2ccccc2Nc2c(Cl)cccc2Cl)n1-c1cccc(Cl)c1Cl [5d] | 141 ± 1 | 83 ± 1 | 96 ± 2 |  | 
11 | Sc1nnc(Cc2ccccc2Nc2c(Cl)cccc2Cl)n1-c1ccc(Cl)cc1Cl [5e] | 93 ± 1 | 92 ± 1 | 94 ± 1 |  | 
12 | Sc1nnc(Cc2ccccc2Nc2c(Cl)cccc2Cl)n1-c1ccc(Cl)c(Cl)c1 [5f] | 75 ± 1 | 247 ± 1 | 97 ± 2 |  | 
13 | CCSc1nnc(Cc2ccccc2Nc2c(Cl)cccc2Cl)n1-c1ccc(F)cc1 [6a] | > 250 | 116 ± 1 | 88 ± 2 |  | 
14 | CCSc1nnc(Cc2ccccc2Nc2c(Cl)cccc2Cl)n1-c1ccc(Cl)c(Cl)c1 [6b] | > 250 | 132 ± 1 | 98 ± 1 |  | 
15 | CCCSc1nnc(Cc2ccccc2Nc2c(Cl)cccc2Cl)n1-c1ccc(F)cc1 [6c] | > 250 | 92 ± 1 | 85 ± 1 |  | 
16 | CCCSc1nnc(Cc2ccccc2Nc2c(Cl)cccc2Cl)n1-c1ccc(Cl)c(Cl)c1 [6d] | > 250 | 90 ± 1 | 78 ± 2 |  | 

Row | SMILES | IC50 [1] [µM] | IC50 [2] [µM] | cell viability (%) at 0.25 mM [3] [%] | IC50 (µM) ± SEM α-glucosidase [2] | viability at 0.25 mM [4] [%]
17 | Fc1ccccc1Nc1nnc(Cc2ccccc2Nc2c(Cl)cccc2Cl)o1 [7a] | 98 ± 1 | 7 ± 1 | 76 ± 1 |  | 
18 | Fc1cccc(Nc2nnc(Cc3ccccc3Nc3c(Cl)cccc3Cl)o2)c1 [7b] | 87 ± 1 | 3 ± 1 | 72 ± 1 |  | 
19 | Fc1ccc(Nc2nnc(Cc3ccccc3Nc3c(Cl)cccc3Cl)o2)cc1 [7c] | 67 ± 1 | 85 ± 1 | 63 ± 1 |  | 
20 | Clc1cccc(Nc2nnc(Cc3ccccc3Nc3c(Cl)cccc3Cl)o2)c1Cl [7d] | 165 ± 1 | 79 ± 1 | 62 ± 2 |  | 
21 | Clc1ccc(Nc2nnc(Cc3ccccc3Nc3c(Cl)cccc3Cl)o2)c(Cl)c1 [7e] | 172 ± 1 | 61 ± 1 | 43 ± 1 |  | 
22 | Clc1ccc(Nc2nnc(Cc3ccccc3Nc3c(Cl)cccc3Cl)o2)cc1Cl [7f] | 143 ± 1 | 91 ± 1 | 59 ± 2 |  | 
23 | Fc1ccccc1Nc1nnc(Cc2ccccc2Nc2c(Cl)cccc2Cl)s1 [8a] | > 250 | 99 ± 1 | 86 ± 2 |  | 
24 | Fc1cccc(Nc2nnc(Cc3ccccc3Nc3c(Cl)cccc3Cl)s2)c1 [8b] | 97 ± 1 | 11 ± 1 | 92 ± 2 |  | 
25 | Fc1ccc(Nc2nnc(Cc3ccccc3Nc3c(Cl)cccc3Cl)s2)cc1 [8c] | 173 ± 1 | 55 ± 1 | 76 ± 1 |  | 
26 | Clc1cccc(Nc2nnc(Cc3ccccc3Nc3c(Cl)cccc3Cl)s2)c1Cl [8d] | 132 ± 1 | 46 ± 1 | 98 ± 2 |  | 
27 | Clc1ccc(Nc2nnc(Cc3ccccc3Nc3c(Cl)cccc3Cl)s2)c(Cl)c1 [8e] | > 250 |  | 75 ± 1 | inactive; also recorded: non-active | 
28 | Clc1ccc(Nc2nnc(Cc3ccccc3Nc3c(Cl)cccc3Cl)s2)cc1Cl [8f] | 156 ± 1 | 125 ± 1 | 95 ± 2 |  | 
29 | O=c1cc(-c2ccccc2)oc2cc(O)c(O)c(O)c12 [baicalein, reference compound] | 22 ± 1 |  |  |  | 
30 | COc1cc(/C=C/C(=O)CC(=O)/C=C/c2ccc(O)c(OC)c2)ccc1O [curcumin, reference compound] |  |  |  |  | 74 ± 2
31 | O=P1(N(CCCl)CCCl)NCCCO1 (stereo not shown) [cyclophosphamide, reference compound] |  |  |  |  | 56 ± 2
32 | O=c1c(O)c(-c2ccc(O)c(O)c2)oc2cc(O)cc(O)c12 [quercetin, reference compound] |  |  |  |  | 92 ± 1
